Results taken from ChEMBL document CHEMBL6078701, “Design and synthesis of novel benzoic acid derivatives as striatal-enriched protein tyrosine phosphatase (STEP) inhibitors with neuroprotective properties” (Eur J Med Chem, 2025).
Calls of active or inactive are those of the source. The calls are words filed in the database; no cut-off is given here.

Columns and labels:
PC-12 = assay: Cytotoxicity against PC-12 cells at 40 uM incubated for 48 hrs by CCK-8 assay; type: toxicity, cell-based; details: rat, pc-12, 48 h
HT-22 [1] = assay: Effect on STEP expression in mouse HT-22 cells by Western blot analysis; type: functional, cell-based
HT-22 [2] = assay: Induction of apoptosis in glutamate-induced mouse HT-22 cells assessed as viable cells at 10 uM incubated for 12 hrs by Annexin V/PI staining based flow cytometry analysis (reference value: 92.6%); type: functional; details: read-out: Activity
HT-22 [3] = assay: Induction of apoptosis in glutamate-induced mouse HT-22 cells assessed as necrotic cells at 10 uM incubated for 12 hrs by Annexin V/PI staining based flow cytometry analysis (reference value: 3.63 %); type: functional
HT-22 [4] = assay: […] glutamate-induced ROS accumulation in mouse HT-22 cells assessed as reduction in fluorescent intensity at 10 to 20 uM incubated for 14 hrs by DCFH-DA staining based inverted fluorescence microscopic analysis; type: functional, cell-based; details: dose 10-20 µM
HT-22 [5] = assay: Induction of apoptosis in glutamate-induced mouse HT-22 cells assessed as late apoptotic cells at 10 uM incubated for 12 hrs by Annexin V/PI staining based flow cytometry analysis (reference value: 2.55 %); type: functional
Cortical neurone [6] = assay: Neuroprotective activity against OGD/R induced C57BL/6J mouse Primary cortical neuron assessed as decrease in BAX expression at 10 to 20 uM incubated for 12 hrs by immunofluorescence analysis; type: functional, cell-based; details: dose 10-20 µM
HT-22 [7] = assay: Induction of apoptosis in glutamate-induced mouse HT-22 cells assessed as late apoptotic cells at 20 uM incubated for 12 hrs by Annexin V/PI staining based flow cytometry analysis (reference value: 2.55 %); type: functional
Cortical neurone [8] = assay: Neuroprotective activity against OGD/R induced C57BL/6J mouse Primary cortical neuron assessed as decrease in C-caspase3 expression at 10 to 20 uM incubated for 12 hrs by immunofluorescence analysis; type: functional, cell-based; details: dose 10-20 µM
[9] = target: T1, Tyrosine-protein phosphatase non-receptor type 22 (Homo sapiens, UniProt Q9Y2R2); assay: Inhibition of LYP (unknown origin)
T1 sequence (Q9Y2R2 whole entry): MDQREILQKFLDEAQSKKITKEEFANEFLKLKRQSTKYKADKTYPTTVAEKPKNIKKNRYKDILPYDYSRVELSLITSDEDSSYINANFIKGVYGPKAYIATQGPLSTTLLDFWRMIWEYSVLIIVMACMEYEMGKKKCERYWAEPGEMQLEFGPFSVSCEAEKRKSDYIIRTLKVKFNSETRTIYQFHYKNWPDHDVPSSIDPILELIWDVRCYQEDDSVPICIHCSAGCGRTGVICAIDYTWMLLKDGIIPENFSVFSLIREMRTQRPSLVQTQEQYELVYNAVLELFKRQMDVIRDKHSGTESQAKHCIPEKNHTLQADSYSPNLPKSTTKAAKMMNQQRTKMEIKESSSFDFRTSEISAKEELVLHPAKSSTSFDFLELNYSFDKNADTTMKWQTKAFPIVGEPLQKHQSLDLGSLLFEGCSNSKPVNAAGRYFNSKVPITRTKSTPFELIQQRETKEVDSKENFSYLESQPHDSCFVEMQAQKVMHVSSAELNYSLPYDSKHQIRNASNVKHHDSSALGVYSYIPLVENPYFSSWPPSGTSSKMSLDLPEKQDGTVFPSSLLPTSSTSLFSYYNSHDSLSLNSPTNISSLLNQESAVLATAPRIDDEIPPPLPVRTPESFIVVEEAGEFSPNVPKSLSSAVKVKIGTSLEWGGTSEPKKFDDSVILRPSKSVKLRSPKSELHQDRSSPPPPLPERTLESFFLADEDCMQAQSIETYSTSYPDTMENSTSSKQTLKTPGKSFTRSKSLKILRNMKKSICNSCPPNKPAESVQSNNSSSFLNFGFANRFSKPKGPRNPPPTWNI

HT-22 [10] = assay: Anti-apoptotic activity in glutamate-induced mouse HT-22 cells assessed as increase in BCL-2 expression at 10 to 20 uM incubated for 12 hrs by immunofluorescence analysis; type: functional, cell-based; details: dose 10-20 µM
[11] = target: T2, Receptor-type tyrosine-protein phosphatase O (Homo sapiens, UniProt Q16827); assay: Inhibition of PTPRO (unknown origin)
T2 sequence (Q16827 whole entry): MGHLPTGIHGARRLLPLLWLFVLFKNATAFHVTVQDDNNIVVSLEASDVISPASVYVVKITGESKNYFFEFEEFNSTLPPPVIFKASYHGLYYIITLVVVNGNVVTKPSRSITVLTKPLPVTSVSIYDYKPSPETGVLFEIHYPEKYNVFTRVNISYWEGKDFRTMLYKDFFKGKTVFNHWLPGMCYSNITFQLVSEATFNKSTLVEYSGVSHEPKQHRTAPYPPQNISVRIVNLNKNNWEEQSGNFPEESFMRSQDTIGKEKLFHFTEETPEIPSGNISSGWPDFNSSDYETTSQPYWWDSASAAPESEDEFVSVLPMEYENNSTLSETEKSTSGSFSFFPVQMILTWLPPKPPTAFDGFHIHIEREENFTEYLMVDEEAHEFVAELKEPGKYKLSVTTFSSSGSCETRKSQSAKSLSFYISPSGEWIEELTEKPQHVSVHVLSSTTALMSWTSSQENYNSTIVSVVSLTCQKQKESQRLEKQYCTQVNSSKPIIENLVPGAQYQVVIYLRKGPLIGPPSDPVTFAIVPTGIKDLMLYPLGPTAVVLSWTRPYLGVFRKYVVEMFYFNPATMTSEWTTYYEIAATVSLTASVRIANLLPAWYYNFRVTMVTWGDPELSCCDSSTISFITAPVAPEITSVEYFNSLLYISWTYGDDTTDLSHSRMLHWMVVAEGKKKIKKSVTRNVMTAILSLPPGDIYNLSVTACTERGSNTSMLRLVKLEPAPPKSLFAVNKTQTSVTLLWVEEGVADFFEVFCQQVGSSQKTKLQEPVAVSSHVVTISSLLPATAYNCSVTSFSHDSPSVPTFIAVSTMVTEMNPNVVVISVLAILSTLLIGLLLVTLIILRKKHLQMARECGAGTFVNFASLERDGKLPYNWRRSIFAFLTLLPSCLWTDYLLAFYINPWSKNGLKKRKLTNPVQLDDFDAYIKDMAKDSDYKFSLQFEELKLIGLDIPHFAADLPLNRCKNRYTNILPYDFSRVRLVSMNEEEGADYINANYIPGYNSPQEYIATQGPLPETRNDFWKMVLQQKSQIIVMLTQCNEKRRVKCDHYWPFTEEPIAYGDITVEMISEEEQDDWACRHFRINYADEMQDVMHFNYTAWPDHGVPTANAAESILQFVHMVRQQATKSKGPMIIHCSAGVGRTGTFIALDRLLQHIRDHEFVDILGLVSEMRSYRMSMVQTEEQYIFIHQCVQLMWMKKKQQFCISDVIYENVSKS

HT-22 [12] = assay: Induction of apoptosis in glutamate-induced mouse HT-22 cells assessed as viable cells at 20 uM incubated for 12 hrs by Annexin V/PI staining based flow cytometry analysis (reference value: 92.6%); type: functional; details: read-out: Activity
HT-22 [13] = assay: Induction of apoptosis in glutamate-induced mouse HT-22 cells assessed as necrotic cells at 20 uM incubated for 12 hrs by Annexin V/PI staining based flow cytometry analysis (reference value: 3.63 %); type: functional
[14] = target: T3, Tyrosine-protein phosphatase non-receptor type 2 (Homo sapiens, UniProt P17706); assay: Inhibition of TCPTP (unknown origin)
T3 sequence (P17706 whole entry): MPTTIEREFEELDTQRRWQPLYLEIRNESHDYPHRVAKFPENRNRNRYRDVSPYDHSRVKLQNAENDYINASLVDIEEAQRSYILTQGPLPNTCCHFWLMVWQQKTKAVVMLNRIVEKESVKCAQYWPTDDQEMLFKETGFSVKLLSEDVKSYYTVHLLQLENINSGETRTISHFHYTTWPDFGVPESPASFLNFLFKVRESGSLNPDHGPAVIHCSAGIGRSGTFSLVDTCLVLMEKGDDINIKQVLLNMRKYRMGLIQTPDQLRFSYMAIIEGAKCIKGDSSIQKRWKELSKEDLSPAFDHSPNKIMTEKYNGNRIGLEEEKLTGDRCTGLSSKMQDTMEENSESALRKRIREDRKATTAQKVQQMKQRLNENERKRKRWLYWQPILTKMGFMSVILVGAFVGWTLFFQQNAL

Cortical neurone [15] = assay: Neuroprotective activity against OGD/R induced C57BL/6J mouse Primary cortical neuron assessed as alleviation in neuronal apoptosis at 10 to 20 uM incubated for 12 hrs by immunofluorescence analysis; type: functional, cell-based; details: dose 10-20 µM
HT-22 [16] = assay: Cytotoxicity against mouse HT-22 cells assessed as effect on cell viability at 40 uM incubated for 48 hrs by CCK-8 assay; type: toxicity, cell-based; details: ht-22, 48 h
HT-22 [17] = assay: Induction of apoptosis in glutamate-induced mouse HT-22 cells assessed as early apoptotic cells at 20 uM incubated for 12 hrs by Annexin V/PI staining based flow cytometry analysis (reference value: 1.23 %); type: functional
HT-22 [18] = assay: Neuroprotective activity against glutamate-induced cytotoxicity in mouse HT-22 cells at 10 to 20 uM assessed as increase in cell viability measured after 14 hrs by CCK8 assay; type: functional, cell-based; details: dose 10-20 µM
HT-22 [19] = assay: Neuroprotective activity against glutamate-induced cytotoxicity in mouse HT-22 cells at 10 to 20 uM assessed as cell death measured after 14 hrs by CCK8 assay; type: functional, cell-based; details: dose 10-20 µM
[20] = target: T4, Tyrosine-protein phosphatase non-receptor type 1 (Homo sapiens, UniProt P18031); assay: Inhibition of PTP1B (unknown origin)
T4 sequence (P18031 whole entry): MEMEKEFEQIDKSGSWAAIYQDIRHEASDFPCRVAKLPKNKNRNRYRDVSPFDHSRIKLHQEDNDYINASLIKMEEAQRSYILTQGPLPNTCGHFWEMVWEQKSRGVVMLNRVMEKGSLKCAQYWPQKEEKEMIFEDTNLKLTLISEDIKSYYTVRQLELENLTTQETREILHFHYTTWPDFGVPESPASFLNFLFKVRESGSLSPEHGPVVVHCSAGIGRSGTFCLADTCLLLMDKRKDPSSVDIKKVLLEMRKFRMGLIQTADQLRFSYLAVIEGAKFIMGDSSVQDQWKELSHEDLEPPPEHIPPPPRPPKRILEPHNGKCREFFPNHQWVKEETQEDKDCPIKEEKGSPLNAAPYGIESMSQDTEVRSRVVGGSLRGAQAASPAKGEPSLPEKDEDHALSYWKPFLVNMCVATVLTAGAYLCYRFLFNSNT

Cortical neurone [21] = assay: Neuroprotective activity against OGD/R induced C57BL/6J mouse Primary cortical neuron assessed as alleviation in neuronal apoptosis at 10 to 20 uM incubated for 12 hrs by TUNEL staining based analysis; type: functional, cell-based; details: dose 10-20 µM
HT-22 [22] = assay: Anti-apoptotic activity in glutamate-induced mouse HT-22 cells assessed as decrease in BAX expression at 10 to 20 uM incubated for 12 hrs by Western blot analysis; type: functional, cell-based; details: dose 10-20 µM
HT-22 [23] = assay: Induction of apoptosis in glutamate-induced mouse HT-22 cells assessed as reduction in C-caspase 3 activation at 10 to 20 uM incubated for 12 hrs by immunofluorescence analysis; type: functional, cell-based; details: dose 10-20 µM
HT-22 [24] = assay: Induction of apoptosis in glutamate-induced mouse HT-22 cells assessed as early apoptotic cells at 10 uM incubated for 12 hrs by Annexin V/PI staining based flow cytometry analysis (reference value: 1.23 %); type: functional
Cortical neurone [25] = assay: Neuroprotective activity against OGD/R induced C57BL/6J mouse Primary cortical neuron assessed as increase in BCL-2 expression at 10 to 20 uM incubated for 12 hrs by immunofluorescence analysis; type: functional, cell-based; details: dose 10-20 µM
HT-22 [26] = assay: Anti-apoptotic activity in glutamate-induced mouse HT-22 cells assessed as decrease in BAX expression at 10 to 20 uM incubated for 12 hrs by immunofluorescence analysis; type: functional, cell-based; details: dose 10-20 µM
HT-22 [27] = assay: Induction of apoptosis in glutamate-induced mouse HT-22 cells assessed as reduction in C-caspase 3 activation at 10 to 20 uM incubated for 12 hrs by Western blot analysis; type: functional, cell-based; details: dose 10-20 µM
HT-22 [28] = assay: Anti-apoptotic activity in glutamate-induced mouse HT-22 cells assessed as increase in BCL-2 expression at 10 to 20 uM incubated for 12 hrs by Western blot analysis; type: functional, cell-based; details: dose 10-20 µM

## O=C(O)c1ccc(-c2ccc(/C=C3\C(=O)c4cccc([N+](=O)[O-])c4C3=O)o2)c(Cl)c1
PC-12
  Activity: Non-toxic
HT-22 [1]
  Activity: Active
HT-22 [2]
  viability at 10 µM: 91.9%
HT-22 [3]
  Activity: 0.92%
HT-22 [4]
  Activity: Active
HT-22 [5]
  Activity: 4.02%
Cortical neurone [6]
  Activity: Active
HT-22 [7]
  Activity: 3.57%
Cortical neurone [8]
  Activity: Active
[9]
  IC50: 11.2 µM
HT-22 [10]
  Activity: Active
[11]
  IC50: 14.3 µM
HT-22 [12]
  viability at 20 µM: 93.2%
HT-22 [13]
  Activity: 1.26%
[14]
  IC50: 44 µM
Cortical neurone [15]
  Activity: Active
HT-22 [16]
  Activity: Non-toxic
HT-22 [17]
  Activity: 2.02%
HT-22 [18]
  Activity: Active
HT-22 [19]
  Activity: Active
[20]
  IC50: 9.01 µM
Cortical neurone [21]
  Activity: Active
HT-22 [22]
  Activity: Active
HT-22 [23]
  Activity: Active
HT-22 [24]
  Activity: 3.15%
Cortical neurone [25]
  Activity: Active
HT-22 [26]
  Activity: Active
HT-22 [27]
  Activity: Active
HT-22 [28]
  Activity: Active
